pEC50: −log10 of the molar value.
What was measured:
Assay type in all cases: cell-based
[1] = tested on: IL-6 (THP-1 human monocyte cell line); assay: IL-6 inhibition in LPS-stimulated THP-1 cells (HTRF); conditions: LPS 500 ng/mL; for pEC50: 22 hours, IL6 HTRF; for inhibition at 10 µM: given for EC50 >10 μM, read-out: percent inhibition at 10 μM
Method in brief: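 THP-1 cells, serum-reduced to 1% FBS for 24 h, preincubated 2 h at 37° C with compound (10-point, 1:3 series, 0.1% DMSO), then stimulated with 500 ng/mL LPS for 22 h. IL-6 quantified by HTRF 665/620 nm ratio, normalized to DMSO; EC50 by four-parameter fit, else percent inhibition at 10 μM.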

[2] = tested on: Wnt activity (Sp5-Luc reporter, SW480 colon carcinoma cells); assay: Wnt activity screening assay, Sp5-Luc reporter gene in SW480 cells; conditions: Homo sapiens; for inhibition at 10 µM: given for EC50 >10 μM, read-out: percent inhibition at 10 μM; for pEC50: overnight incubation
Method in brief: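 SW480 colon carcinoma cells stably expressing firefly luciferase under a human Sp5 promoter (eight TCF/LEF sites), plated in 1% FBS medium. 10-point 1:3 dilutions from 10 μM, 0.1% DMSO final, overnight at 37 °C; luminescence normalized to DMSO, four-parameter fit for EC50, % inhibition at 10 μM if EC50 >10 μM.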

SW480 colon cancer cells = assay: Cell viability assay (CellTiter-Blue); conditions: Homo sapiens, 96 h, four days; for inhibition at 10 µM: given for EC50 >10 μM, read-out: percent inhibition at 10 μM
Method in brief: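 Resazurin reduction (Ex 560/Em 590 nm, ~3 h reagent incubation) served as the viability read-out after SW480 cells were treated for four days at 37 °C. Doses ran from 10 μM down to 0.0045 μM in eight 1:3 steps. Curves fitted non-linearly for EC50, else % inhibition at 10 μM reported.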

SMILES | pEC50 [1] | inhibition at 10 µM [1] | inhibition at 10 µM [2] | pEC50 [2] | pEC50 (SW480 colon cancer cells) | inhibition at 10 µM (SW480 colon cancer cells)
CCNCc1cncc(-c2cnc3[nH]nc(-c4cc5c(-c6ccccc6F)ccnc5[nH]4)c3c2)c1 [Compound 62, N-((5-(3-(4-(2-Fluorophenyl)-1H-pyrrolo[2,3-b]pyridin-2-yl)-1H-pyrazolo [3,4-b]pyridin-5-yl)pyridin-3-yl)methyl)ethanamine] | < 5.00 | 13.3% | 0% | < 5.00 | < 5.00 | 38.2%
c1cc(-c2cnc3[nH]nc(-c4cc5c(-c6ccncc6)ccnc5[nH]4)c3c2)ccn1 [Compound 130, 5-(Pyridin-4-yl)-3-(4-(pyridin-4-yl)-1H-pyrrolo[2,3-b]pyridin-2-yl)-1H-pyrazolo[3,4-b]pyridine] | < 5.00 | 45.9% | 6.3% | < 5.00 | < 5.00 | 5.7%
Fc1ccc(-c2ccnc3[nH]c(-c4n[nH]c5ncc(-c6cncnc6)cc45)cc23)cc1 [Compound 55, 3-(4-(4-Fluorophenyl)-1H-pyrrolo[2,3-b]pyridin-2-yl)-5-(pyrimidin-5-yl)-1H-pyrazolo[3,4-b]pyridine] | < 5.00 | 32.2% | 13.6% | < 5.00 | < 5.00 | 3.5%
Fc1cccc(-c2ccnc3[nH]c(-c4n[nH]c5ncc(-c6ccccn6)cc45)cc23)c1 [Compound 28, 3-(4-(3-Fluorophenyl)-1H-pyrrolo[2,3-b]pyridin-2-yl)-5-(pyridin-2-yl)-1H-pyrazolo[3,4-b]pyridine] | < 5.00 | 49.5% | 15% | < 5.00 | < 5.00 | 16.3%
CN1CCN(c2ccnc3[nH]c(-c4n[nH]c5ncc(-c6cn[nH]c6)cc45)cc23)CC1 [Compound 635, 3-(4-(4-Methylpiperazin-1-yl)-1H-pyrrolo[2,3-b]pyridin-2-yl)-5-(1H-pyrazol-4-yl)-1H-pyrazolo[3,4-b]pyridine] | < 5.00 | 21.4% | 5.8% | < 5.00 | < 5.00 | 3.6%
CC(C)Nc1cncc(-c2cnc3[nH]nc(-c4cc5c(-c6cccnc6)ccnc5[nH]4)c3c2)c1 [Compound 96, N-Isopropyl-5-(3-(4-(pyridin-3-yl)-1H-pyrrolo[2,3-b]pyridin-2-yl)-1H-pyrazolo[3,4-b]pyridin-5-yl)pyridin-3-amine] | 7.03 |  | 30.1% | < 5.00 | < 5.00 | 14.3%
Cc1ccncc1-c1cnc2[nH]nc(-c3cc4c(-c5ccc(F)cc5)ccnc4[nH]3)c2c1 [Compound 33, 3-(4-(4-Fluorophenyl)-1H-pyrrolo[2,3-b]pyridin-2-yl)-5-(4-methylpyridin-3-yl)-1H-pyrazolo[3,4-b]pyridine] | < 5.00 | 27.7% | 2.7% | < 5.00 | < 5.00 | 25%
CCNCc1cncc(-c2cnc3[nH]nc(-c4cc5c(-c6cccnc6)ccnc5[nH]4)c3c2)c1 [Compound 90, N-((5-(3-(4-(Pyridin-3-yl)-1H-pyrrolo[2,3-b]pyridin-2-yl)-1H-pyrazolo[3,4-b]pyridin-5-yl)pyridin-3-yl)methyl)ethanamine] | 5.27 |  | 8.2% | < 5.00 | < 5.00 | 17%
Fc1ccc(-c2ccnc3[nH]c(-c4n[nH]c5ncc(-c6cncc(CN7CCCC7)c6)cc45)cc23)cc1 [Compound 42, 3-(4-(4-Fluorophenyl)-1H-pyrrolo[2,3-b]pyridin-2-yl)-5-(5-(pyrrolidin-1-ylmethyl)pyridin-3-yl)-1H-pyrazolo[3,4-b]pyridine] | < 5.00 | 36.8% | 26% | < 5.00 | < 5.00 | 24.8%
O=C(Nc1cncc(-c2cnc3[nH]nc(-c4cc5c(-c6ccccc6F)ccnc5[nH]4)c3c2)c1)C1CCCC1 [Compound 78, N-(5-(3-(4-(2-Fluorophenyl)-1H-pyrrolo[2,3-b]pyridin-2-yl)-1H-pyrazolo [3,4-b]pyridin-5-yl)pyridin-3-yl)cyclopentanecarboxamide] | 6.20 |  | 17% | < 5.00 | < 5.00 | 11.3%
CCCC(=O)Nc1cncc(-c2cnc3[nH]nc(-c4cc5c(-c6ccncc6)ccnc5[nH]4)c3c2)c1 [Compound 129, N-(5-(3-(4-(Pyridin-4-yl)-1H-pyrrolo[2,3-b]pyridin-2-yl)-1H-pyrazolo[3,4-b]pyridin-5-yl)pyridin-3-yl)butyramide] | 6.21 |  | 35% | < 5.00 | < 5.00 | 3.8%
Fc1cccc(-c2ccnc3[nH]c(-c4n[nH]c5ncc(-c6ccncc6)cc45)cc23)c1 [Compound 18, 3-(4-(3-Fluorophenyl)-1H-pyrrolo[2,3-b]pyridin-2-yl)-5-(pyridin-4-yl)-1H-pyrazolo[3,4-b]pyridine] | < 5.00 | 37.2% | 11.7% | < 5.00 | < 5.00 | 23.2%
CN(C)c1cncc(-c2cnc3[nH]nc(-c4cc5c(-c6cccs6)ccnc5[nH]4)c3c2)c1 [Compound 343, N,N-Dimethyl-5-(3-(4-(thiophen-2-yl)-1H-pyrrolo[2,3-b]pyridin-2-yl)-1H-pyrazolo[3,4-b]pyridin-5-yl)pyridin-3-amine] | 7.49 |  | 18.3% | < 5.00 | < 5.00 | 36.8%
CC(C)(C)CC(=O)Nc1cncc(-c2cnc3[nH]nc(-c4cc5cccnc5[nH]4)c3c2)c1 [Compound 268, N-(5-(3-(1H-Pyrrolo[2,3-b]pyridin-2-yl)-1H-pyrazolo[3,4-b]pyridin-5-yl)pyridin-3-yl)-3,3-dimethylbutanamide] | 6.44 |  |  | 6.07 | 5.70 | 
CCCCC(=O)Nc1cncc(-c2cnc3[nH]nc(-c4cc5c(-c6ccccc6F)ccnc5[nH]4)c3c2)c1 [Compound 75, N-(5-(3-(4-(2-Fluorophenyl)-1H-pyrrolo[2,3-b]pyridin-2-yl)-1H-pyrazolo [3,4-b]pyridin-5-yl)pyridin-3-yl)pentanamide] | < 5.00 | 33.8% | 2.1% | < 5.00 | < 5.00 | 23.6%
Fc1cccc(-c2ccnc3[nH]c(-c4n[nH]c5ncc(-c6cncc(OCc7ccccc7)c6)cc45)cc23)c1 [Compound 518, 5-(5-(Benzyloxy)pyridin-3-yl)-3-(4-(3-fluorophenyl)-1H-pyrrolo[2,3-b]pyridin-2-yl)-1H-pyrazolo[3,4-b]pyridine] | < 5.00 | 6.3% | 0% | < 5.00 | < 5.00 | 16.3%
Oc1cncc(-c2cnc3[nH]nc(-c4cc5c(-c6ccc(F)cc6)ccnc5[nH]4)c3c2)c1 [Compound 533, 5-(3-(4-(4-Fluorophenyl)-1H-pyrrolo[2,3-b]pyridin-2-yl)-1H-pyrazolo[3,4-b]pyridin-5-yl)pyridin-3-ol] | < 5.00 | 20.7% | 3.4% | < 5.00 | < 5.00 | 19%
CN(C)CCOc1cncc(-c2cnc3[nH]nc(-c4cc5c(-c6cccnc6)ccnc5[nH]4)c3c2)c1 [Compound 563, N,N-dimethyl-2-((5-(3-(4-(pyridin-3-yl)-1H-pyrrolo[2,3-b]pyridin-2-yl)-1H-pyrazolo[3,4-b]pyridin-5-yl)pyridin-3-yl)oxy)ethan-1-amine] | < 5.00 | 18.7% | 20.6% | < 5.00 | < 5.00 | 5.3%
c1cnc2[nH]c(-c3n[nH]c4ncc(-c5ccncc5)cc34)cc2c1 [Compound 270, 5-(Pyridin-4-yl)-3-(1H-pyrrolo[2,3-b]pyridin-2-yl)-1H-pyrazolo[3,4-b]pyridine] | 5.33 |  | 0% | < 5.00 | < 5.00 | 23.9%

Source: US10285983B2, “3-(1H-pyrrolo[2,3-B]pyridin-2-yl)-1H-pyrazolo[3,4-B] pyridines and therapeutic uses thereof” (Samumed, LLC, priority 2015, dated 2019)
